What was measured:
H9c2 cells = details: in vitro; cited from earlier work
apoptosis = assay: TUNEL assay for apoptotic signal in brain slices; format: in vivo, rat; details: frontal cortex, anterior and posterior hippocampus; acute or chronic (× 7) 0.3 mg/kg; 72 h after treatment; qualitative
Procedure: (§1) Animals received single or multiple (once per day for seven days) subcutaneous injections of 25I-NBOMe dissolved in 0.9% NaCl at a dose of 0.3 mg/kg/2 ml. The control group was treated with 0.9% NaCl solution in the same way. All procedures were performed 72 h after the last injection. The time point of 72 h was chosen due to the possible generation of neurotoxicity via oxidative stress caused by reactive oxygen species (ROS). Exceptionally, for initial 25I-NBOMe brain distribution studies, rats received the drug in the dose of 1 and 10 mg/kg and were sacrificed 15 min after the drug administration. The rat blood plasma and brain tissues were collected immediately after rats’ decapitation. LSD (0.05 mg/kg, ip) was given daily for 7 days in a volume of 1 ml/kg, while MDMA 5 mg/kg, ip was injected in a volume of 2 ml/kg every second day (overall 4 injections).
As described above, animals were perfused transcardially and brains were fixed overnight in 4% PFA, then gradually dehydrated and stored in 70% ethanol (EtOH). Paraffin-embedded brain tissue was sectioned on a microtome (Leica, RM45) for 7-µm-thick sections. […] The apoptotic signal was assessed using Click-iT™ Plus TUNEL Assay for in situ apoptosis detection with Alexa Fluor™ 488 picolyl azide dye. […] Stained slides were examined under a fluorescence microscope (Nikon Eclipse50i, Japan) equipped with a camera and NIS Elements software.

[1] = test system: p21 (CDC42/RAC)-activated kinase 1 (PAK1); set-up: method as in PMID 32597268; details: cited from earlier work
[2] = test system: primary mice cardiomyocytes; details: in vitro; cited from earlier work
QT interval = details: electrocardiography in rats; cited from earlier work
[3] = test system: BrdU+ cells and BrdU/NeuN+ neurons in the hippocampus; details: doses 0.1, 0.3, and 1 mg/kg; vs control rats; cited from earlier work
[4] = test system: NeuN-, S100β- and IBA-1-immunopositive cells; assay: Immunohistochemistry with stereological count of cortical and hippocampal cells; format: in vivo, rat; details: chronic 0.3 mg/kg × 7 sc, 72 h, vs control
Procedure: as §1
Animals were deeply anesthetized and transcardially perfused with 0.9% NaCl followed by 4% paraformaldehyde (PFA) in 0.1 M phosphate-buffered saline (PBS). After 24 h of fixation in 4% PFA (4 °C), 300 µm sections were cut through the frontal cortex (FC) and medial prefrontal cortex (mPFC) as well as hippocampus using a VT-1000S vibratome (Leica Microsystems, Heidelberg, Germany). Free-floating sections were processed for single staining of neurons with neuronal-specific nuclear protein (NeuN), glia with specific calcium-binding protein B (S100β), and microglia cells with ionized calcium-binding adaptor molecule 1 (IBA-1) antibodies. Subsequently, brain sections were rinsed and incubated for 1 h in a blocking buffer: 0.01 M PBS containing 0.3% Triton X-100 and 5% average horse, goat, or rabbit serum. After that, the sections were incubated for 48 h at 4 °C with one of the following primary antibodies: monoclonal anti-NeuN (1:1000), monoclonal anti-S100β-subunit (1:1000) or polyclonal IBA-1 (1:500) diluted in 0.01 M PBS containing 0.3% Triton X-100 (PBST) and 3% average horse or goat serum. Primary antibody binding was visualized with biotinylated secondary antibodies, the Avidin/Biotin Complex (Vectastain Elite ABC Kit) according to recommended by manufacturer concentration and 3,3′-diaminobenzidine tetrahydrochloride (DAB, 10 mg/50 ml and 0.025% H2O2) solution to give a brown color to NeuN, S100β and IBA-1-immunoreactive cells. For data presentation, digital images were captured using a digital camera CX 9000 (Bioscience Microbrightfield, Inc., Germany) attached to a Leica microscope (CTR 6000) with 2.5 and 5.0 dry or 63 × and 100 × oil objectives (Leica) that was controlled by Stereo Investigator software (v.8.10.2, 1995–2007 Bioscience Microbrightfield, Inc., Germany). The final photomicrographs were composed using the Adobe Photoshop program. The numbers of NeuN-, S100β- and IBA-1-immunopositive cells in the analyzed brain regions were estimated using unbiased stereological methods[35],[36]. Briefly, every sixth section from the systematic random sampling along the rostrocaudal axis was analyzed with a 63 ×/1.4–0.7 lens using the Stereo Investigator stereology system software. The cells appearing in the upper focal plane were omitted to prevent the counting of cell caps (− 5 μm of the topmost surface of the section). Immunopositive cells were marked when they were within the optical dissectors, which comprised a focal plane of 1600 μm^2 × 15 μm. The total numbers of NeuN, S100β- and IBA-1-immunopositive cells in the FC, mPFC, and hippocampus were automatically calculated by the Stereo Investigator software. In addition, the volume of the cortical regions and hippocampus was calculated using the Cavalieri Estimator option of the Stereo Investigator software.

[5] = medial prefrontal cortex (mPFC)

## COc1cc(CCNCc2ccccc2OC)c(OC)cc1I [25I-NBOMe, 4-Iodo-2,5-dimethoxy-N-(2-methoxybenzyl)phenethylamine]
H9c2 cells
  Cell viability: decreased the viability
apoptosis
  Apoptotic signal (TUNEL): did not indicate apoptotic signal
[1]
  In vitro activity of PAK1: reduced
[2]
  Cell viability: decreased the viability
QT interval
  QT interval: prolonged
[3]
  Number of surviving BrdU+ cells and BrdU/NeuN+ neurons in the hippocampus: significantly decreased
[4]; frontal cortex (FC)
  Number of IBA-1-immunopositive cells (microglia): significantly decreased
  Number of NeuN cells (neurons): did not notice any significant change
  Number of S100β-immunopositive cells (astrocytes): significantly decreased
[4]; hippocampal regions CA1, CA3/CA2 and dentate gyrus
  Number of neuronal and glial cells: did not show any changes
[4]; [5]
  Number of NeuN cells (neurons): did not notice any significant change
  Number of S100β-immunopositive cells (astrocytes): significant decrease
